The results in this text go back to ChEMBL document CHEMBL1201862, “PubChem BioAssay data set” (2004).

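48-hour exposure; five concentrations; linearly interpolated endpoints. GI50 is the concentration that inhibits growth by half.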 Active and inactive are the calls of the source. Rule as the data show it: active = GI50 up to about 1.1 µM and inactive = higher.

Some test systems named below: NCI-H522; T47D; HCT-116; NCI-H226; MOLT-4; CCRF-CEM; Hs-578T; CAKI-1; MCF7; DMS-273; K562; XF498; HT-29; KM12; SK-MEL-5; ACHN; SF-539; NCI-H23; SNB-19; OVCAR-5.
What all share (experiment): DTP human tumour cell line panel, 48 h

In the case of `COc1ccccc1/C=C1\CCC(Cc2ccccc2)(CN(C)C)C1=O` (stereo unspecified), the GI50 (in general, the concentration that inhibits growth by half) in the assay with NCI-H522 is 0.597 µM (active); in the assay on T47D, 22.2 µM (inactive); in the assay with HCT-116, 0.406 µM (active); in the assay with NCI-H226, 23.6 µM (inactive); with MOLT-4 it was 1.05 µM (active); in the assay with CCRF-CEM, 0.528 µM (active). The 50% growth inhibitory concentration (GI50) in the assay with Hs-578T is 0.834 µM (active); in the assay on CAKI-1, 2.38 µM (inactive); in the assay with MCF7, 0.292 µM (active); in the assay with DMS-273 it was 0.294 µM (active); with K562, 0.0851 µM (active); in the assay with XF498 it was 4.3 µM (inactive). Also, the GI50 with HT-29 is 0.426 µM (active); in the assay with KM12, 0.319 µM (active); in the assay on SK-MEL-5, 1.85 µM (inactive); in the assay on ACHN, 12.6 µM (inactive); with SF-539 it was 1.52 µM (inactive); in the assay with NCI-H23 it was 6.43 µM (inactive). Further, the results for the GI50 in the assay with SNB-19 and in the assay with OVCAR-5 were 1.57 µM (inactive) and 14.5 µM (inactive), respectively.

As for `COC(=O)C(C)(C)/N=C/N(C)C`, the GI50 in the assay on NCI-H522 was > 100 µM (inactive); in the assay on HCT-116 it was > 100 µM (inactive); with NCI-H226, > 100 µM (inactive); in the assay with MOLT-4, > 100 µM (inactive); in the assay with CCRF-CEM, 72.6 µM (inactive); in the assay with CAKI-1 it was > 100 µM (inactive). Moreover, the GI50 with DMS-273, with K562, in the assay with XF498, in the assay with HT-29, with KM12 and in the assay with SK-MEL-5 was > 100 µM (inactive) throughout. The GI50 with ACHN, with SF-539, in the assay with NCI-H23, with SNB-19 and in the assay with OVCAR-5 was > 100 µM (inactive) in each case.

As to `COc1cccc(/C=C2\CCC(CN(C)C)C2=O)c1` (stereo unspecified), the GI50 is 2.56 µM (inactive) in the assay on NCI-H522; 2.76 µM (inactive) with T47D; 3.07 µM (inactive) in the assay on HCT-116; 16.3 µM (inactive) in the assay on NCI-H226; 1.44 µM (inactive) in the assay with MOLT-4; 1.08 µM (active) with CCRF-CEM. Further, the GI50 in the assay with Hs-578T is 8.71 µM (inactive); in the assay with CAKI-1, 6.76 µM (inactive); with MCF7, 2.25 µM (inactive); in the assay with DMS-273, 12.2 µM (inactive); in the assay with K562, 1.1 µM (active); with XF498, 18.9 µM (inactive). Further, the GI50 with HT-29 is 6.05 µM (inactive); in the assay with KM12, 4.11 µM (inactive); in the assay with SK-MEL-5, 9.82 µM (inactive); with ACHN, 11.8 µM (inactive); with SF-539, 13.9 µM (inactive); with NCI-H23, 8.09 µM (inactive). Also, the GI50 is 13.5 µM (inactive) in the assay with SNB-19 and 12.1 µM (inactive) with OVCAR-5.

With `COC1CC(C)C(OC)C2=CC(=O)C=C(NC(=O)/C(C)=C/C=C\C(C)C(OC(N)=O)/C(C)=C\C(C)C1OC)C2=O` (stereo unspecified), the GI50 in the assay on NCI-H522 is 0.0908 µM (active); in the assay with HCT-116, 0.313 µM (active); in the assay on NCI-H226 it was 6.15 µM (inactive); in the assay on MOLT-4 it was 0.0535 µM (active); in the assay on CCRF-CEM it was 0.117 µM (active); in the assay with CAKI-1, 2.52 µM (inactive). For the same compound, the GI50 was 0.0621 µM (active) with MCF7; 0.239 µM (active) with DMS-273; 0.114 µM (active) in the assay with K562; 0.681 µM (active) with XF498; 0.244 µM (active) in the assay on HT-29; 0.521 µM (active) in the assay on KM12. Further, the GI50 is 0.804 µM (active) with SK-MEL-5; 1.25 µM (inactive) in the assay on ACHN; 0.355 µM (active) in the assay with SF-539; 0.447 µM (active) with NCI-H23; 0.495 µM (active) with SNB-19; 3.2 µM (inactive) with OVCAR-5.

Take `NCCOc1ccc(/C(=C(/Cl)c2ccccc2)c2ccccc2)cc1`: the GI50 in the assay with NCI-H522 was 12.4 µM (inactive); with HCT-116, 7.19 µM (inactive); in the assay on NCI-H226, 18.7 µM (inactive); with MOLT-4, 3.14 µM (inactive); with CCRF-CEM, 7.11 µM (inactive); with CAKI-1 it was 8.34 µM (inactive). Also, the GI50 in the assay on DMS-273 is 10.6 µM (inactive); in the assay with K562 it was 3.32 µM (inactive); with XF498, 5.6 µM (inactive); in the assay on HT-29, 3.14 µM (inactive); with KM12 it was 5.18 µM (inactive); with SK-MEL-5, 9.1 µM (inactive). Also, the GI50 in the assay with ACHN is 14 µM (inactive); in the assay on SF-539, 15.3 µM (inactive); in the assay with NCI-H23, 16 µM (inactive); in the assay on SNB-19 it was 14.4 µM (inactive); with OVCAR-5, 16.7 µM (inactive).

Regarding `CC(C)NC(=O)OCc1c(COC(=O)NC(C)C)c(-c2ccc(Cl)c(Cl)c2)n2c1CCC2`, the GI50 in the assay on NCI-H522 is > 62.4 µM (inactive); in the assay with T47D it was 50.5 µM (inactive); in the assay with HCT-116 it was 51.8 µM (inactive); with NCI-H226, 28.1 µM (inactive); in the assay with MOLT-4, 13.7 µM (inactive); with CCRF-CEM, 26.5 µM (inactive). Further, the GI50 is > 97.5 µM (inactive) in the assay with Hs-578T; 20.9 µM (inactive) with CAKI-1; > 100 µM (inactive) with MCF7; > 49.2 µM (inactive) in the assay on DMS-273; 46.1 µM (inactive) with K562; 45.7 µM (inactive) in the assay on XF498. Besides, the GI50 in the assay on HT-29 is 40.9 µM (inactive); with KM12 it was 62.5 µM (inactive); in the assay with SK-MEL-5, 24.9 µM (inactive); in the assay with ACHN it was 18.7 µM (inactive); in the assay on SF-539, 43.5 µM (inactive); in the assay with NCI-H23, 46.9 µM (inactive). In addition, the GI50 with SNB-19 is 56.5 µM (inactive); in the assay with OVCAR-5, 44.9 µM (inactive).

For the compound `Cn1cccc(C(=O)c2ccccc2)c1=O`, the GI50 in the assay with NCI-H522, in the assay on HCT-116, in the assay with NCI-H226, in the assay with MOLT-4, in the assay on CCRF-CEM and in the assay on CAKI-1 was > 100 µM (inactive) in each case. The GI50 with DMS-273, with K562, with XF498, in the assay with HT-29, with KM12 and with SK-MEL-5 was > 100 µM (inactive) throughout. Further, the GI50 with ACHN, with SF-539, with NCI-H23, in the assay on SNB-19 and in the assay with OVCAR-5 was > 100 µM (inactive) in each case.

Take `O=C(Nc1ccc(Cl)cc1)NS(=O)(=O)c1ccc2c(c1)CCC2` [SULOFENUR]: the GI50 was 27.9 µM (inactive) in the assay with NCI-H522; 16.4 µM (inactive) in the assay on T47D; 26.2 µM (inactive) with HCT-116; 37.9 µM (inactive) in the assay on NCI-H226; 26.4 µM (inactive) in the assay with MOLT-4; 29.9 µM (inactive) with CCRF-CEM. Moreover, the GI50 in the assay with Hs-578T was 0.209 µM (active); with CAKI-1, 42.9 µM (inactive); with MCF7, 24.1 µM (inactive); in the assay with DMS-273 it was 32.4 µM (inactive); with K562, 10.2 µM (inactive); in the assay with XF498 it was 34.1 µM (inactive). The GI50 with HT-29 was 61.1 µM (inactive); with KM12 it was 36.1 µM (inactive); with SK-MEL-5, 26.9 µM (inactive); in the assay with ACHN, 29.4 µM (inactive); in the assay with SF-539, 28.3 µM (inactive); in the assay on NCI-H23 it was 28.1 µM (inactive). Besides, the GI50 was 40.9 µM (inactive) with SNB-19 and > 43.8 µM (inactive) in the assay on OVCAR-5.

On to `CCOC1(COP(=O)(OCc2ccccc2)OCc2ccccc2)COC(COP(=O)(OCc2ccccc2)OCc2ccccc2)(OCC)CO1` (stereo unspecified), for which the GI50 is > 100 µM (inactive) in the assay on NCI-H522; > 100 µM (inactive) in the assay with HCT-116; 89.7 µM (inactive) with NCI-H226; 17.4 µM (inactive) in the assay with MOLT-4; > 100 µM (inactive) with CCRF-CEM; > 100 µM (inactive) with CAKI-1. For the same compound, the GI50 in the assay on DMS-273, in the assay on K562, in the assay on XF498, in the assay on HT-29, in the assay with KM12 and in the assay on SK-MEL-5 was > 100 µM (inactive) in each case. For the same compound, the GI50 with ACHN was 7.82 µM (inactive); in the assay on SF-539 it was > 100 µM (inactive); with NCI-H23, > 100 µM (inactive); in the assay with SNB-19 it was > 100 µM (inactive); in the assay with OVCAR-5, > 100 µM (inactive).
